pIC50, pKi: −log10 of the molar value. Entries after “also recorded” stand apart in the source; their conditions may differ. Each block holds one compound with its values, some of them ahead of it. Where a SMILES comes first, the peptide text is derived from it.
Tests used:
[1] = target: T1, novel non-AT1, non-AT2 angiotensin binding site (neurolysin) (Rattus norvegicus, UniProt P42676); test: Competition binding of 125I-Sar1,Ile8 Ang II in rat testis membranes; settings: for inhibition of 125I-SI Ang II binding in testis at concentrations up to 1 mM: rat testis
[2] = target: T1, novel non-AT1, non-AT2 angiotensin binding site (neurolysin); test: Competition binding of 125I-Sar1,Ile8 Ang II in rat brain membranes; settings: for inhibition of 125I-SI Ang II binding in brain at concentrations up to 1 mM: rat brain
[3] = target: neurolysin; settings: read-out: KI for neurolysin; reported value; cited from earlier work
[4] = listed as Proline-Isoleucine dipeptide

T1 sequence (P42676 38-704): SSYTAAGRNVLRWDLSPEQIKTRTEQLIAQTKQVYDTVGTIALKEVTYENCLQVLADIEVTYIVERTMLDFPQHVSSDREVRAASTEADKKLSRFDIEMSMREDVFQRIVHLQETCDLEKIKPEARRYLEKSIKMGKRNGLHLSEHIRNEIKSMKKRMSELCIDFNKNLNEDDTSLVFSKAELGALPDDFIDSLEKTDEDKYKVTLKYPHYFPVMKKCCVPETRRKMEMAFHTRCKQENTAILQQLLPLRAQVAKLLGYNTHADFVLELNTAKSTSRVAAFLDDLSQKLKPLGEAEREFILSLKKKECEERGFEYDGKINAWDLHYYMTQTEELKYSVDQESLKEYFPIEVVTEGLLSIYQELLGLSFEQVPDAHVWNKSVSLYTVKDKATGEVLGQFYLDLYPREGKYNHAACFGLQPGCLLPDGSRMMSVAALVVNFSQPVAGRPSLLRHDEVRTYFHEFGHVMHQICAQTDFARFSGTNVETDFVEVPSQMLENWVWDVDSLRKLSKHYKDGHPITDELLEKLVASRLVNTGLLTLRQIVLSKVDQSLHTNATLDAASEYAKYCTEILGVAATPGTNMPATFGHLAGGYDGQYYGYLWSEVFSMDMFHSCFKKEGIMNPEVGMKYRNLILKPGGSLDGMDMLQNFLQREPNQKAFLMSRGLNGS

Structure (SMILES): CC[C@H](C)[C@H](NC(=O)[C@H](CCCN=C(N)N)NC(=O)[C@H](CCCN=C(N)N)NC(=O)[C@H](CC(C)C)NC(=O)[C@H](Cc1ccccc1)NC(=O)CNC(=O)CNC(=O)[C@@H](N)Cc1ccc(O)cc1)C(=O)O [Dynorphin A (1–8)]
- pIC50 [1]: 5.66

Structure (SMILES): CC[C@H](C)[C@H](NC(=O)[C@@H]1CCCN1)C(=O)O [Pro-Ile, proline-isoleucine dipeptide] (H-Pro-Ile-OH)
- inhibition of 125I-SI Ang II binding in brain at concentrations up to 1 mM [2]: no inhibition; also recorded: failed to inhibit; also recorded: did not inhibit
- inhibition of 125I-SI Ang II binding in brain at concentrations up to 1 mM [2, 4]: inactive
- inhibition of 125I-SI Ang II binding in testis at concentrations up to 1 mM [1]: no inhibition; also recorded: failed to inhibit; also recorded: did not inhibit
- inhibition of 125I-SI Ang II binding in testis at concentrations up to 1 mM [1, 4]: inactive
- pKi [3]: 4.05

- pIC50 ([2]; IC50 in brain, rat brain membranes, Figure 1 Panel A): 7.09
- pIC50 ([1]; IC50 in testis, rat testis membranes, Figure 1 Panel A): 6.90
Structure (SMILES): CC[C@H](C)[C@H](NC(=O)[C@@H]1CCCN1C(=O)[C@H](Cc1c[nH]cn1)NC(=O)[C@@H](NC(=O)[C@H](Cc1ccc(O)cc1)NC(=O)[C@@H](NC(=O)[C@H](CCCN=C(N)N)NC(=O)CNC)C(C)C)[C@@H](C)CC)C(=O)O [SI Ang II, Sar^1, Ile^8 angiotensin II]

Source: PMC3742649 (Endocrine, 2013)
